Laboratory results as given in patent publication US9409880B2, “Modulators of TLR3/dsRNA complex and uses thereof” (The Regents of the University of Colorado, a body corporate, priority 2011, dated 2016).

Assays:
[1] = target: T1, TLR3 (Mus musculus, UniProt Q99MB1); assay: In vitro TLR3 inhibition assay: Poly IC-induced NO production in RAW 264.7 cells; assay type: cell-based
T1 construct: endogenous in cells; host or cells: RAW 264.7
T1 sequence (Q99MB1 26-905): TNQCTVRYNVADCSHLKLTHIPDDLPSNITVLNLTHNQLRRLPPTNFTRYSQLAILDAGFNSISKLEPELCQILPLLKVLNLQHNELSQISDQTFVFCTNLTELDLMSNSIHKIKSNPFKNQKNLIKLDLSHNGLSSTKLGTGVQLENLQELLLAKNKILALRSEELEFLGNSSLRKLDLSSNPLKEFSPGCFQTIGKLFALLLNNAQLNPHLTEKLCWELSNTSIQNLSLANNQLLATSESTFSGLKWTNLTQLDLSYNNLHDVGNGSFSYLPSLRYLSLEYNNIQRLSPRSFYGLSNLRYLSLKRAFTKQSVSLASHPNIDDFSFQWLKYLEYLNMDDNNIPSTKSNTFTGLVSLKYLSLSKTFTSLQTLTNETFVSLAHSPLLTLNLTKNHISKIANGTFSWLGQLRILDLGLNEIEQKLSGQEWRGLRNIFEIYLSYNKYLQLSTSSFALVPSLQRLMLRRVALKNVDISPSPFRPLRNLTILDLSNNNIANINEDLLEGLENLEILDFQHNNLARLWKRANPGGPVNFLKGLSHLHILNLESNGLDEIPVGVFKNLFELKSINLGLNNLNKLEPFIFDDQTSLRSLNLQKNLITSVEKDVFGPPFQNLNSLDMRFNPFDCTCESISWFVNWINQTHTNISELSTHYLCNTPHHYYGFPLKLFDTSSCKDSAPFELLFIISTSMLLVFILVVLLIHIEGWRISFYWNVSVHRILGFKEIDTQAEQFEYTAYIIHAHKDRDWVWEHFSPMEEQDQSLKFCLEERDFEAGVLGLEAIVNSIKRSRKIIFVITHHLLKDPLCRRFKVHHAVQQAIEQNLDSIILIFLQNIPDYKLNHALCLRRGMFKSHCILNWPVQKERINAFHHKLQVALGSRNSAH
Excerpt: The initial hits (Figure A) were first evaluated using the present inventors' previously established high-throughput cell assay of TLR3 activation. See, for example, ACS Med. Chem. Lett. 2010, 1, 194 and Bioorg. Med. Chem. Lett., 2010, 20, 5411. Poly IC (Polyriboinosinic:polyribocytidylic acid) has been reported to selectively activate TLR3 signaling, resulting in the activation of nitric oxide synthase and the production nitric oxide (NO) in RAW 264.7 macrophage cells. The NO level was monitored as an indicator of Poly IC-induced TLR3 activation to evaluate the drug's inhibitory activity.
RAW 264.7 (Mouse leukaemic monocyte macrophage cell line) cells were grown in RPMI 1640 medium, supplemented with 10% FBS, penicillin (100 U/mL) and streptomycin ([…]). RAW cells were then planted in 96-well plates at 100,000 cells per well and grown for 24 h in the media descried previously at 37° C. in a 5% CO2 humidified incubator. After 24 h, non-adherent cells and media were removed and replaced with fresh RPMI 1640 medium (only RPMI). The adherent macrophages were treated with high molecular weight polyinosine-polycytidylic acid (Poly IC) (10 μg/mL) (Invivogen), an agonist of TLR3, and then added different concentrates of potential inhibitor. Two rows were only treated with Poly IC as an control. Plates were then incubated for an additional 24 h. Following incubation 100 μL of media was removed and added to flat black 96-well microfluor plates (Thermo Scientific, MA, USA). To each well, 10 μL of 2,3-diaminonaphthalene (0.05 mg/mL in 0.62 M aqueous HCl solution) was added and incubated for 15 min in the dark. The reaction was quenched by addition of 5 μL of a 3 M aqueous NaOH solution and the plate was read on Beckman Coulter DTX880 reader (Beckman Coulter, Calif., USA) with excitation at 365 nm and emission at 450 nm. The nitrite (a stable metabolite of nitric oxide) concentration was determined from a nitrite standard curve. The inhibition rate (%) of NO release was determined using the following formula: Inhibition (%)=[Poly IC(OD450)−Compounds (OD450)]/[Poly IC(OD450)−Control (OD450)]×100. The IC50 values for both inhibition and cytotoxicity were determined graphically using software Origin v7.5.

[2] = target: T2, TLR3 (Homo sapiens, UniProt O15455); assay: Fluorescence anisotropy assay, competition with Rhodamine labeled Poly IC; assay type: binding
T2 construct: purchased R &D
T2 sequence (O15455 24-904): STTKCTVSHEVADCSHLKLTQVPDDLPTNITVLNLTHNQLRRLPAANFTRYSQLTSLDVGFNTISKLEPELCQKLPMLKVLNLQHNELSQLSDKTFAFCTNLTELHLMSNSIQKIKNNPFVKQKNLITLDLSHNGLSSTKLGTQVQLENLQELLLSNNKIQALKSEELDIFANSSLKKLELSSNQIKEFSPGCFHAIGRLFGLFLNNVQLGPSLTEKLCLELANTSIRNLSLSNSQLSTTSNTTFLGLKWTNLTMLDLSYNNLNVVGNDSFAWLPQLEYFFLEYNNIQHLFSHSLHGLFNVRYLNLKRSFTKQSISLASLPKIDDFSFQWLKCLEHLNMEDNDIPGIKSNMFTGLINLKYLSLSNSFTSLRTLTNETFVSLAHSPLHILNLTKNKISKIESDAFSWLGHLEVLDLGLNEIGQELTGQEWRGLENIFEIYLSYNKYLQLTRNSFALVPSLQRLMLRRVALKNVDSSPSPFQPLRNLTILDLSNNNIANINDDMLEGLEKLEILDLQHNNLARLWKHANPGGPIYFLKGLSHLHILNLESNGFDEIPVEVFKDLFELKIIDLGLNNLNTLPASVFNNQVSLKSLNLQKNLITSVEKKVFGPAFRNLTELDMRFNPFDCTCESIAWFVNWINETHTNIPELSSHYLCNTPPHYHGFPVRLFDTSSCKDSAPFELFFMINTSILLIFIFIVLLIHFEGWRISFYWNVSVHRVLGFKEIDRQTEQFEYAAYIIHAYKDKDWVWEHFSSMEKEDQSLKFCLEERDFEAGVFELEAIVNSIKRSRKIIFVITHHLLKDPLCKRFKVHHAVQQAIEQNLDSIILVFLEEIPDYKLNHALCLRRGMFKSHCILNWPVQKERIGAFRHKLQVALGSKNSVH
Protocol: The anisotropy of Rhodamine labeled Poly IC increased from approximately 0.116 to 0.171 upon addition of TLR3 (excitation=546 nm; emission=576 nm).
In 500 μL Tris buffer (pH=7.2) add 5 μL (1 μg/mL) Rhodamine labeled Poly IC (Invivogen), test the anisotropy at excitation of 546 nm and emission of 576 nm (Horiba Fluorolog 3). An addition 3 μL (20 μM) of TLR3 (R &D) was added in the buffer, then test the anisotropy again. Following, 4a was added in the buffer from 0 to 68 μM, and the fluorescence anisotropy was tested when the concentration was changed.

[3] = whole cell inhibitory activity, Poly IC-induced NO, RAW 264.7, average ± SD, at least three independent tests
[4] = whole cell inhibitory activity, second part of Table 1 (R5/R6 series)
[5] = Poly IC-induced TLR3 activation, cell assay

Row | Compound | IC50 [1, 3] [µM] | TLR3 binding competition with dsRNA [2] | IC50 [1, 4] [µM] | IC50 [1, 5] [µM]
1 | O=C(N[C@H](Cc1ccccc1)C(=O)O)c1cc2ccccc2s1 [Compound 1a, (R)-2-(benzo[b]thiophene-2-carboxamido)-3-phenylpropanoic acid] | > 155 | does not show any significant binding to TLR3 | – | –
2 | O=C(O)[C@@H](Cc1ccc(O)cc1)NS(=O)(=O)c1cccc(F)c1 [Compound 18a, (R)-2-(3-fluorophenylsulfonamido)-3-(4-hydroxyphenyl)propanoic acid] | – | – | > 100 | –
3 | O=C(O)[C@H](Cc1ccc(O)cc1)NS(=O)(=O)c1cccc(F)c1 [Compound 18b, (S)-2-(3-fluorophenylsulfonamido)-3-(4-hydroxyphenyl)propanoic acid] | – | – | > 100 | –
4 | O=C(O)[C@@H](Cc1ccc(O)cc1)NS(=O)(=O)c1ccc(F)cc1 [Compound 19a, (R)-2-(4-fluorophenylsulfonamido)-3-(4-hydroxyphenyl)propanoic acid] | – | – | > 100 | –
5 | O=C(O)[C@H](Cc1ccc(O)cc1)NS(=O)(=O)c1ccc(F)cc1 [Compound 19b, (S)-2-(4-fluorophenylsulfonamido)-3-(4-hydroxyphenyl)propanoic acid] | – | – | > 100 | –
6 | O=C(O)[C@@H](Cc1ccccc1)NS(=O)(=O)c1ccccc1F [Compound T5260630, reference compound] | 145 ± 4 | – | – | 145 ± 3.7
7 | O=C(N[C@H](Cc1ccccc1)C(=O)O)c1cc2c(s1)CCCCC2 [Compound T5626448, reference compound] | 154 ± 6 | – | – | 154 ± 5.9
